Assay results published in patent US9926302B2, “Heteroaryl substituted heterocyclyl sulfones” (priority 2014, dated 2018).

The compounds below were run against T1, Human CaV2.2 channels (Homo sapiens, UniProt Q00975) (assay: Fluorescence assay for CaV2.2 channels using potassium depolarization to induce channel opening (FLIPR, Fluo 4)). Conditions: 3 μM test compound; alternative assay buffer 30 mM KCl (inactivated channel state); HEK293 cells stably expressing human CaV2.2.
T1 construct: expressed in transfected cells
T1 sequence (P54289 947-1103): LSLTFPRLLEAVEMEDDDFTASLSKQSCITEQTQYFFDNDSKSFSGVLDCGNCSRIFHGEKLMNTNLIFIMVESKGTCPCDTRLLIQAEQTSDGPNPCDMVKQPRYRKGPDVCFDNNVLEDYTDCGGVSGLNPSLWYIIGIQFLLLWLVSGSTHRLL
T1 sequence (P54289 25-946): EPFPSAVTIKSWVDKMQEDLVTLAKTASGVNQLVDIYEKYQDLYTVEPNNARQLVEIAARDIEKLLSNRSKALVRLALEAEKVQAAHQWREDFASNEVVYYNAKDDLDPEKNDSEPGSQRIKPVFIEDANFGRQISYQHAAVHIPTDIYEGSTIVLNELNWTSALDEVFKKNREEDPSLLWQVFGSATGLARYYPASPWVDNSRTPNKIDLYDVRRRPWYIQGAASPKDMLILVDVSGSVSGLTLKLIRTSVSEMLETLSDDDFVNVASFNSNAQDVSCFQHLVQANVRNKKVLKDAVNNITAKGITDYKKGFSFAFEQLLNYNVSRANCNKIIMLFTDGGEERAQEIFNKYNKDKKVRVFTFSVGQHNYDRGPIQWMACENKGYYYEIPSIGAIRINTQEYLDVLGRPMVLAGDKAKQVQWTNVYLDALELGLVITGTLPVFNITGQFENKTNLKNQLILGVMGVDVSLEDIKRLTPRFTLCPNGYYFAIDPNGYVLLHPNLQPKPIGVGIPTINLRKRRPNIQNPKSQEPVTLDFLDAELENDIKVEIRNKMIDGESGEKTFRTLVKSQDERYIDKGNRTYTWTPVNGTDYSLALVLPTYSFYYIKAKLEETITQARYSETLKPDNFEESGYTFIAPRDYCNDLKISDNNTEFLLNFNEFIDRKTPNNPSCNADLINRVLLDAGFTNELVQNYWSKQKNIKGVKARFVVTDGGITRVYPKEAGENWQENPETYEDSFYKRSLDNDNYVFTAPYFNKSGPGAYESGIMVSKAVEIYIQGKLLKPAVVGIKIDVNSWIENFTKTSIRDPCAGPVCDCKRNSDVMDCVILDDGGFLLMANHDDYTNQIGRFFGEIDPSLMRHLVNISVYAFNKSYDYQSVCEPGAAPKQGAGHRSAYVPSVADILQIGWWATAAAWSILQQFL
T1 sequence (P54284 whole entry, further chain): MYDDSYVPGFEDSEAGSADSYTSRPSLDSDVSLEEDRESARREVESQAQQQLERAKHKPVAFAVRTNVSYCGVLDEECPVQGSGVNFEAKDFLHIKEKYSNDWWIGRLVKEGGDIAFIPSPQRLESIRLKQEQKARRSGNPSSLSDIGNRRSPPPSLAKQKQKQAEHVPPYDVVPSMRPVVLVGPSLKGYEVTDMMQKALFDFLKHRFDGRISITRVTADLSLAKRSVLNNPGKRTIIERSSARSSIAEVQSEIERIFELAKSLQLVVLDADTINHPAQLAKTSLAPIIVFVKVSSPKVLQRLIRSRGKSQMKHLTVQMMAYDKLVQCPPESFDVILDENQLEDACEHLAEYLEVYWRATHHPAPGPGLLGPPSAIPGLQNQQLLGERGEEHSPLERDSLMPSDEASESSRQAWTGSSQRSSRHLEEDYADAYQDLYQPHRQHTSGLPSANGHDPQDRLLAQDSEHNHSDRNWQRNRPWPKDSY
T1 sequence (Q00975 whole entry): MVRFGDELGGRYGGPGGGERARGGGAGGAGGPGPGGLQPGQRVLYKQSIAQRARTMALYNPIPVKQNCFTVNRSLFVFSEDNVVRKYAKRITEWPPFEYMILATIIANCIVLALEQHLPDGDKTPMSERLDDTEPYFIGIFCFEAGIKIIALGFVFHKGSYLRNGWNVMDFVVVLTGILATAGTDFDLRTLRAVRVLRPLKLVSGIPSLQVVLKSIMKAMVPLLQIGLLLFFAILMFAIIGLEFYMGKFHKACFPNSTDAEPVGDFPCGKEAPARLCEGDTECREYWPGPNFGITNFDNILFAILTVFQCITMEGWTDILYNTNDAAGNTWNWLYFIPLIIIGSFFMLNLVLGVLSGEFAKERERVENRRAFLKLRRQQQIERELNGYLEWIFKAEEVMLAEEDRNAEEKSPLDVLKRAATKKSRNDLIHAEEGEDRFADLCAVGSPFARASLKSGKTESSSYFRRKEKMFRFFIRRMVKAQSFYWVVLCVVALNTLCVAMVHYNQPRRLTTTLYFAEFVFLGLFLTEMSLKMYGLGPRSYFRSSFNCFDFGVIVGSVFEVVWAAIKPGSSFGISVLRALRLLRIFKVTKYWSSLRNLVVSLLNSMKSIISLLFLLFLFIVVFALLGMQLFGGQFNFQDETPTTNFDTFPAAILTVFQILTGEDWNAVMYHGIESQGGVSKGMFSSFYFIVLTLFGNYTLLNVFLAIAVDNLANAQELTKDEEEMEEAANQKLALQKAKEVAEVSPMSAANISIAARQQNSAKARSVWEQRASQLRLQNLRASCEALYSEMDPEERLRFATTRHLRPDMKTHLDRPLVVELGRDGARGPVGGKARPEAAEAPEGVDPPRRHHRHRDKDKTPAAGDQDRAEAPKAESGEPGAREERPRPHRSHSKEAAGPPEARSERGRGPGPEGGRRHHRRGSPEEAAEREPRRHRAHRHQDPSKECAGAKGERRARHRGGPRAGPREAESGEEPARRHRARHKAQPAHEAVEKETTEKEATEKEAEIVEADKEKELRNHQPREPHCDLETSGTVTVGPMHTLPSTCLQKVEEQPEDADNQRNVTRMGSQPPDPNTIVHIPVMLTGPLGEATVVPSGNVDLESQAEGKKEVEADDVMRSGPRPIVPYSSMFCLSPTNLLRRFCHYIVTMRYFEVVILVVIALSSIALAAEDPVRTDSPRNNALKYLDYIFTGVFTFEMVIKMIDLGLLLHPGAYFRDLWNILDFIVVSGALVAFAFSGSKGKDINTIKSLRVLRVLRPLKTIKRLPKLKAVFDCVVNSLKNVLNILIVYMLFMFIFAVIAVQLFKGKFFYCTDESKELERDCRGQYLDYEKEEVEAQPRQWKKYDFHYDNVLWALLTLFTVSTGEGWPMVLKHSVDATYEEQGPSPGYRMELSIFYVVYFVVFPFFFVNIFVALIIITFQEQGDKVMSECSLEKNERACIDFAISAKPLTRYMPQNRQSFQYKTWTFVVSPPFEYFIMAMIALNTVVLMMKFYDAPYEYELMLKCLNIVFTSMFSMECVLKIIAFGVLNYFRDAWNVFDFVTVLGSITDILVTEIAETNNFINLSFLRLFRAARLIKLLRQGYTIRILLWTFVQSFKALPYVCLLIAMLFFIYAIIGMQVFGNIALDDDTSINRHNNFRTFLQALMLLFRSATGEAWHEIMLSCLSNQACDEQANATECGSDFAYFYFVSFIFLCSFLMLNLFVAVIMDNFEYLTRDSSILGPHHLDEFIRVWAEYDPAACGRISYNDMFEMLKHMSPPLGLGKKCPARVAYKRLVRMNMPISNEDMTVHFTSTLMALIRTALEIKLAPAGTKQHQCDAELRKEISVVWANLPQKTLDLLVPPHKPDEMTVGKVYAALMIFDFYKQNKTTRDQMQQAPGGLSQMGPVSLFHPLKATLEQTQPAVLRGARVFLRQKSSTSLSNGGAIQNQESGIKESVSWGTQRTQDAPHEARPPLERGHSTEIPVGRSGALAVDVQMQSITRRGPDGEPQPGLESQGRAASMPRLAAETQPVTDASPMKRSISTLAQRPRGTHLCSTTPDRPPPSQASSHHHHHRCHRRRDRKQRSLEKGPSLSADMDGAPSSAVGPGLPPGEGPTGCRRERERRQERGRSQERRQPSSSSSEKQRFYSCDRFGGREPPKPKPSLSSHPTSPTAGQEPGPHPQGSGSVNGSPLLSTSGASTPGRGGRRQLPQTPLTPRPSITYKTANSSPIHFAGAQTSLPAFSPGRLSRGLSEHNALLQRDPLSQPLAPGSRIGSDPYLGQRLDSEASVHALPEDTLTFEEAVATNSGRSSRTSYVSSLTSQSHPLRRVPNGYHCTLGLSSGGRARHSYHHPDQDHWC
Type: cell-based
How it was run: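 HEK293 cells stably co-expressing CaV2.2 with alpha2-delta and beta subunits plus Kir2.3, loaded with 2 μM Fluo 4 and pre-incubated 15 min at 25° C with compound in 1 mM or 30 mM KCl buffer (pH 7.4; latter promotes inactivated state). Depolarized by KCl addition; peak fluorescence amplitude normalized to baseline gives inhibition.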

SMILES	Activity Category: %-Inhib (CaV2.2) @3 μM @30 mM KCl
CC1(S(=O)(=O)c2cccc(C(F)(F)F)c2)CCOC(c2nnc(C(F)(F)F)o2)C1 (single isomer, unassigned) [SC-122, 2-[4-Methyl-4-[[3-(trifluoromethyl)phenyl]sulfonyl]-tetrahydro-pyran-2-yl]-5-(trifluoromethyl)-[1,3,4]oxadiazole]	B (%-Inhibition >75% up to ≤95%)
Cc1cc(S(C)(=O)=O)cnc1C1CC(C)(S(=O)(=O)c2cccc(OC(F)(F)F)c2)CCO1 (stereo not shown) [SC-449, 3-Methyl-5-methylsulfonyl-2-[4-methyl-4-[[3-(trifluoromethyloxy)-phenyl]sulfonyl]-tetrahydro-pyran-2-yl]-pyridine]	B (%-Inhibition >75% up to ≤95%)
CC(C)c1cccc(S(=O)(=O)C2(C)CCOC(c3ncc(S(C)(=O)=O)cc3Cl)C2)c1 (stereo not shown) [SC-447, 3-Chloro-2-[4-[(3-isopropyl-phenyl)sulfonyl]-4-methyl-tetrahydro-pyran-2-yl]-5-methylsulfonyl-pyridine]	A (%-Inhibition >95%)
CCC1(S(=O)(=O)c2cccc(C(F)(F)F)c2)CCOC(c2ccc(C(F)(F)F)cn2)C1 (stereo not shown) [SC-109, 2-[4-Ethyl-4-[[3-(trifluoromethyl)phenyl]sulfonyl]-tetrahydro-pyran-2-yl]-5-(trifluoromethyl)-pyridine]	B (%-Inhibition >75% up to ≤95%)
COc1cc(OC)c(C2CC(C)(S(=O)(=O)c3cccc(C(F)(F)F)c3)CCO2)cn1 (stereo not shown) [SC-246, 2,4-Dimethoxy-5-[4-methyl-4-[[3-(trifluoromethyl)phenyl]sulfonyl]-tetrahydro-pyran-2-yl]-pyridine]	A (%-Inhibition >95%)
CC1(S(=O)(=O)c2cc(F)cc(C(F)(F)F)c2)CCOC(c2ncc(S(C)(=O)=O)cc2Cl)C1 (stereo not shown) [SC-215, 3-Chloro-2-[4-[[3-fluoro-5-(trifluoromethyl)-phenyl]sulfonyl]-4-methyl-tetrahydro-pyran-2-yl]-5-methylsulfonyl-pyridine]	B (%-Inhibition >75% up to ≤95%)
Cn1nc(S(C)(=O)=O)cc1C1CC(C)(S(=O)(=O)c2cccc(C(F)(F)F)c2)CCO1 (stereo not shown) [SC-429, 1-Methyl-3-methylsulfonyl-5-[4-methyl-4-[[3-(trifluoromethyl)phenyl]sulfonyl]-tetrahydro-pyran-2-yl]-1H-pyrazole]	C (%-Inhibition >40% up to ≤75%)
Cc1ccc(OCC2CC(C)(S(=O)(=O)c3cccc(C(F)(F)F)c3)CCO2)cn1 (single isomer, unassigned) [SC-113, 2-Methyl-5-[[4-methyl-4-[[3-(trifluoromethyl)phenyl]sulfonyl]-tetrahydro-pyran-2-yl]-methoxy]-pyridine]	B (%-Inhibition >75% up to ≤95%)
CC1(S(=O)(=O)c2cccc(C(F)(F)F)c2)CCOC(c2nnc(C(F)F)o2)C1 (single isomer, unassigned) [SC-124, 2-(Difluoro-methyl)-5-[4-methyl-4-[[3-(trifluoromethyl)phenyl]sulfonyl]-tetrahydro-pyran-2-yl]-[1,3,4]oxadiazole]	C (%-Inhibition >40% up to ≤75%)
CN(C)c1ccc(C2CC(C)(S(=O)(=O)c3cccc(C(F)(F)F)c3)CCO2)cn1 (stereo not shown) [SC-331, Dimethyl-[5-[4-methyl-4-[[3-(trifluoromethyl)phenyl]sulfonyl]-tetrahydro-pyran-2-yl]-pyridin-2-yl]-amine]	A (%-Inhibition >95%)
COc1ccc(C2CC(C)(S(=O)(=O)c3cccc(C(F)(F)F)c3)CCO2)cn1 (stereo not shown) [SC-354, 2-Methoxy-5-[4-methyl-4-[[3-(trifluoromethyl)phenyl]sulfonyl]-tetrahydro-pyran-2-yl]-pyridine]	A (%-Inhibition >95%)
CC1(S(=O)(=O)c2cccc(C(F)(F)F)c2)CCOC(c2nnc(C3CC3)o2)C1 (single isomer, unassigned) [SC-128, 2-Cyclopropyl-5-[4-methyl-4-[[3-(trifluoromethyl)phenyl]sulfonyl]-tetrahydro-pyran-2-yl]-[1,3,4]oxadiazole]	B (%-Inhibition >75% up to ≤95%)
Cn1nc(C(F)(F)F)cc1C1CC(C)(S(=O)(=O)c2cccc(C(F)(F)F)c2)CCO1 (stereo not shown) [SC-345, 1-Methyl-5-[4-methyl-4-[[3-(trifluoromethyl)phenyl]sulfonyl]-tetrahydro-pyran-2-yl]-3-(trifluoromethyl)-1H-pyrazole]	A (%-Inhibition >95%)
Cc1ccc(OCC2CC(C)(S(=O)(=O)c3cccc(C(F)(F)F)c3)CCO2)cn1 (single isomer, unassigned) [SC-112, 2-Methyl-5-[[4-methyl-4-[[3-(trifluoromethyl)phenyl]sulfonyl]-tetrahydro-pyran-2-yl]-methoxy]-pyridine]	C (%-Inhibition >40% up to ≤75%)
CCC1(S(=O)(=O)c2cccc(C(F)(F)F)c2)CCOC(c2nnc(C(F)(F)F)o2)C1 (stereo not shown) [SC-240, 2-[4-Ethyl-4-[[3-(trifluoromethyl)phenyl]sulfonyl]-tetrahydro-pyran-2-yl]-5-(trifluoromethyl)-[1,3,4]oxadiazole]	C (%-Inhibition >40% up to ≤75%)
CCC1(S(=O)(=O)c2cccc(C(F)(F)F)c2)CCOC(c2ccc(C)nc2C)C1 (stereo not shown) [SC-317, 3-[4-Ethyl-4-[[3-(trifluoromethyl)phenyl]sulfonyl]-tetrahydro-pyran-2-yl]-2,6-dimethyl-pyridine]	C (%-Inhibition >40% up to ≤75%)

Same assay, conditions: HEK293, 3 μM test compound; alternative assay buffer 30 mM KCl (inactivated channel state); HEK293 cells stably expressing human CaV2.2; read-out: Activity Category: %-Inhib (CaV2.2) @3 μM @30 mM KCl

SMILES	inhibition at 3 µM
COc1cc(C)c(C2CC(C)(S(=O)(=O)c3cccc(C(F)(F)F)c3)CCO2)cn1 (racemic) [SC-252, 2-Methoxy-4-methyl-5-[4-methyl-4-[[3-(trifluoromethyl)phenyl]sulfonyl]-tetrahydro-pyran-2-yl]-pyridine]	75 to 95%
CC1(S(=O)(=O)c2cccc(C(F)F)c2)CCOC(c2ncc(S(C)(=O)=O)cc2Cl)C1 (stereo not shown) [SC-265, 3-Chloro-2-[4-[[3-(difluoro-methyl)-phenyl]sulfonyl]-4-methyl-tetrahydro-pyran-2-yl]-5-methylsulfonyl-pyridine]	40 to 75%
CC1(S(=O)(=O)c2cccc(C(F)(F)F)c2)CCOC(c2cnc(C3CC3)cn2)C1 (racemic) [SC-328, 2-Cyclopropyl-5-[4-methyl-4-[[3-(trifluoromethyl)phenyl]sulfonyl]-tetrahydro-pyran-2-yl]-pyrazine]	> 95%
CC1(S(=O)(=O)c2cccc(C(F)(F)F)c2)CCOC(c2cnc(C3CC3)nc2)C1 (stereo not shown) [SC-205, 2-Cyclopropyl-5-[4-methyl-4-[[3-(trifluoromethyl)phenyl]sulfonyl]-tetrahydro-pyran-2-yl]-pyrimidine]	> 95%
COc1cc(F)c(C2CC(C)(S(=O)(=O)c3cccc(C(F)(F)F)c3)CCO2)cn1 (racemic) [SC-259, 4-Fluoro-2-methoxy-5-[4-methyl-4-[[3-(trifluoromethyl)phenyl]sulfonyl]-tetrahydro-pyran-2-yl]-pyridine]	> 95%
CC1(S(=O)(=O)c2cccc(C(F)(F)F)c2)CCOC(c2ncc(OC(F)F)cc2Cl)C1 (stereo not shown) [SC-427, 3-Chloro-5-(difluoro-methoxy)-2-[4-methyl-4-[[3-(trifluoromethyl)phenyl]sulfonyl]-tetrahydro-pyran-2-yl]-pyridine]	> 95%
O=S(=O)(c1cccc(C(F)(F)F)c1)C1CCOC(c2ccc(C(F)(F)F)nc2)C1 (stereo not shown) [SC-342, 2-(Trifluoromethyl)-5-[4-[[3-(trifluoromethyl)phenyl]sulfonyl]-tetrahydro-pyran-2-yl]-pyridine]	75 to 95%
Cc1cc(S(C)(=O)=O)cnc1C1CC(C)(S(=O)(=O)c2cccc(C(F)(F)F)c2)CCO1 (stereo not shown) [SC-262, 3-Methyl-5-methylsulfonyl-2-[4-methyl-4-[[3-(trifluoromethyl)phenyl]sulfonyl]-tetrahydro-pyran-2-yl]-pyridine]	75 to 95%
CC1(S(=O)(=O)c2cccc(C(F)(F)F)c2)CCOC(c2nc(C3CC3)co2)C1 (stereo not shown) [SC-158, 4-Cyclopropyl-2-[4-methyl-4-[[3-(trifluoromethyl)phenyl]sulfonyl]-tetrahydro-pyran-2-yl]-oxazole]	> 95%
CNc1ccc(C2CC(C)(S(=O)(=O)c3cccc(C(F)(F)F)c3)CCO2)cn1 (stereo not shown) [SC-408, Methyl-[5-[4-methyl-4-[[3-(trifluoromethyl)phenyl]sulfonyl]-tetrahydro-pyran-2-yl]-pyridin-2-yl]-amine]	75 to 95%
CC1(S(=O)(=O)c2cccc(C(F)(F)F)c2)CCOC(c2ccc(C3CC3)nc2)C1 (stereo not shown) [SC-346, 2-Cyclopropyl-5-[4-methyl-4-[[3-(trifluoromethyl)phenyl]sulfonyl]-tetrahydro-pyran-2-yl]-pyridine]	75 to 95%
COc1ccc(C2CC(C)(S(=O)(=O)c3cccc(C(F)(F)F)c3)CCO2)cn1 (stereo not shown) [SC-353, 2-Methoxy-5-[4-methyl-4-[[3-(trifluoromethyl)phenyl]sulfonyl]-tetrahydro-pyran-2-yl]-pyridine]	75 to 95%
CC1(S(=O)(=O)c2cccc(C(F)(F)F)c2)CCOC(c2ccc(-n3cncn3)nc2)C1 (stereo not shown) [SC-402, 5-[4-Methyl-4-[[3-(trifluoromethyl)phenyl]sulfonyl]-tetrahydro-pyran-2-yl]-2-(1H-[1,2,4]triazol-1-yl)-pyridine]	75 to 95%
Cn1nc(C2CC2)cc1C1CC(C)(S(=O)(=O)c2cccc(C(F)(F)F)c2)CCO1 (stereo not shown) [SC-431, 3-Cyclopropyl-1-methyl-5-[4-methyl-4-[[3-(trifluoromethyl)phenyl]sulfonyl]-tetrahydro-pyran-2-yl]-1H-pyrazole]	75 to 95%
COc1cnc(C2CC(C)(S(=O)(=O)c3cccc(C(F)(F)F)c3)CCO2)cn1 (stereo not shown) [SC-415, 2-Methoxy-5-[4-methyl-4-[[3-(trifluoromethyl)phenyl]sulfonyl]-tetrahydro-pyran-2-yl]-pyrazine]	75 to 95%
